Test results: patent US8609419B2, “Method for inserting a nucleic acid of interest into a prokaryotic or eukaryotic cell by homologous recombination” (Centre National de la Recherche Scientifique, priority 2002, dated 2013)

Tested on: Escherichia coli cell genome
Experiment: Targeted insertion of lacZ::kan by homologous recombination from N-AcO-AAF-treated pCUL-lacZ::kan plasmid (white/total colonies)
Assay type: cell-based
Conditions: for Recombination frequency: white colonies/total colonies / Total number of colonies/number of recombined colonies: E. coli
Experimental: Reaction mixture • Plasmid DNA: Final concentration of 0.5 μg/μl in 2×10^−3 M citrate buffer, pH 7 • N-AcO-AAF: Final concentration of 400 μg/ml in ethanol.
60 μg DNA are added in 114 μl of 2×10^−3 M citrate buffer, pH7, added with 3 μl of ethanol at 100%.
The solution is preheated at 37° C.; then 3 μl of N-AcO-AAF (400 μg/ml) are added, marked with tritium (^3H).
Reaction time: 4, 8, 20 minutes.
40 μl are taken at the various selected times. The reaction is stopped by a DNA precipitation step with 3 volumes of ethanol/sodium acetate 0.16M followed by three other precipitation steps under the same conditions.
The percentage of modified bases is determined measuring the number of plasmid mols through UV spectrophotometry and the number of bound AAF mols, through βradioactivity counting.
The result is expressed in percentage of modified bases. The reaction time is adapted as a function of the size of the plasmid and the desired percentage of modified bases.
E. coli cells are transformed following the conventional electroporation method by using the conditions recommended by the device manufacturers to this end (Gene Pulser from Biorad for example).
In the example, transformant clones are selected on a LB-agar medium containing kanamycin (20 μg/ml) and the lack of β-galactosidase activity (being expressed by white colonies instead of blue ones), i.e. a phenotype typical of a non reciprocal recombination event is visualized by means of the presence of X-gal (5-bromo-4-chloro-3-indolyl-β-D-galactopyranoside) and IPTG (isopropyl-β-D-thiogalactopyranoside) in the dishes.

CC(=O)ON(C(C)=O)c1ccc2c(c1)Cc1ccccc1-2 [N-AcO-AAF, N-acetoxy-2-acetylaminofluorene]
Recombination frequency: white colonies/total colonies (10 AAF injuries per plasmid): 0.056
Total number of colonies/number of recombined colonies (10 AAF injuries per plasmid): 17819/10
Recombination frequency: white colonies/total colonies (20 AAF injuries per plasmid): 0.17
Total number of colonies/number of recombined colonies (20 AAF injuries per plasmid): 9692/17
Recombination frequency: white colonies/total colonies (33 AAF injuries per plasmid): 0.32
Total number of colonies/number of recombined colonies (33 AAF injuries per plasmid): 2301975
Recombination frequency: white colonies/total colonies (43 AAF injuries per plasmid): 1.41
Total number of colonies/number of recombined colonies (43 AAF injuries per plasmid): 16554/237
targeted recombinant molecules (67 AAF injuries on the plasmid, wild strain for recombination systems): more than 6%
Recombination frequency: white colonies/total colonies (67 AAF injuries per plasmid): 6.07
Total number of colonies/number of recombined colonies (67 AAF injuries per plasmid): 1934/125
increase in the recombination frequency (67 AAF injuries versus spontaneous events): more than 1,700 fold
frequency of homologous recombination events (67 molecules of N-AcO-AAF per molecule of the DNA vector): more than 600×10^−4
frequency of non reciprocal homologous recombination events from the DNA vector to the chromosome (N-AcO-AAF bound onto the polynucleotide): higher than 0.05 homologous recombination events per transfected cell
frequency of homologous recombination events (ten molecules of N-AcO-AAF per molecule of the DNA vector): 5.61×10^−4
